# Measurements published in patent US9321787B2, “Carboxylic acid derivatives having an oxazolo[5,4-d]pyrimidine ring” (SANOFI, priority 2011, dated 2016).
# Target: T1, human Edg-1 receptor (Homo sapiens, UniProt P21453)
# T1 construct: FLAG (N); expressed in transfected cells; membrane preparation
# Assay: GTP-γ-S assay using human Edg-1 receptors (scintillation proximity assay, CHO Flp-In membrane preparation)
# Format: biochemical
# Conditions: test compound at 10 μM; high control 10 μM S1P = 100% activation; membranes of CHO Flp-In cells overexpressing human Edg-1; read-out: % activation (Edg-1 receptor activation in percent of the activation by 10 μM S1P)
# From the text: A) GTP-γ-S Assay Using Human Edg-1 Receptors
# In order to determine the Edg-1 receptor activation by the compounds of the invention, a GTP-γ-S (GTP-γ-S=guanosine 5′-[thio]triphosphate) assay for G-protein coupled receptor binding based on the scintillation proximity assay principle was used, employing a cell membrane preparation from a CHO Flp-In cell line which constitutively overexpresses the human Edg-1 receptor.
# A membrane preparation was obtained by standard methods from the aforedescribed CHO Flp-In cell line constitutively overexpressing the human Edg-1 receptor. Briefly, the cryopreserved cells were taken in culture and grown until confluency in T175 cell culture flasks (Becton Dickinson, cat. no. 35 5001). Cell culture was stopped by washing with calcium-free phosphate-buffered saline (PBS; Gibco, cat. no. 14190), and cells were harvested with a rubber-policeman in 4° C. cold and calcium-free PBS supplemented with a protease inhibitor cocktail (complete protease inhibitor; Roche, cat. no. 1697498; 1 tablet per 50 ml) and subsequently centrifuged at 4° C. for 15 min at 1100×g (Heraeus Minifuge T). For cell lysis, the pellet was resuspended in a 4° C. cold hypotonic buffer consisting of 5 mM HEPES (Sigma-Aldrich, cat. no. H-0981), 1 mM EDTA (disodium salt; Merck, cat. no. 8418) supplemented with protease inhibitor cocktail (as above) in which cells were stored for another 15 min on ice. After lysis, cells were centrifuged at 4° C. for 10 min at 400×g (Heraeus Minifuge T). The pellet was disrupted in a Dounce homogenizer, diluted with the supernatant of the previous centrifugation and subsequently centrifuged at 4° C. for 10 min at 500×g (Heraeus Minifuge T) in order to separate nuclei and still intact cells from the membranes mainly present in the supernatant. The supernatant was then diluted in hypotonic buffer and centrifuged (Beckmann, Avanti J251) at approximately 18600×g for 2 h at 4° C. After centrifugation, the membrane pellet was resuspended in a storing buffer consisting of 20 mM HEPES; 150 mM NaCl (Merck, cat. no. 6400), 1 mM EDTA (as above) supplemented with protease inhibitor cocktail (as above). The membrane preparation was aliquoted and stored at −80° C. Protein concentration of the membrane preparation was determined in a sample by means of a commercial protein assay (Bio-Rad, DC Protein Assay, cat. nos. 500-0113, 500-0114, 500-0115).
# The Edg-1 membrane preparation obtained in (b) was employed in a commercially available scintillation proximity assay (SPA) kit for G-protein coupled receptor binding from Amersham Biosciences/GE Healthcare (code RPNQ0210), in which ligand-induced binding of ^35S-radiolabeled GTP-γ-S to the receptor-containing membrane, which is bound to scintillation beads, stimulates the emission of light and allows the quantification of the in vitro activity of the Edg-1 agonistic compound. The assay was performed on a 96-well plate substantially according to the manufacturer's instructions. Before starting the experiments, scintillation beads were suspended in a reconstitution buffer consisting of Tris-HCl (pH 7.4) supplemented with 0.1% (w/v) sodium azide and subsequently diluted on ice with assay buffer (consisting of 20 mM HEPES, 100 mM NaCl, 1 mM EDTA (as above), 1 mM dithiothreitol (DTT), adjusted to pH 7.4) to a final bead concentration of 30 mg/ml.
# Wells were charged with 10 μl of the specified assay buffer, 10 μl of a 100 μM guanosine diphosphate (GDP) solution, and 10 μl of a solution of the test compound in assay buffer/dimethyl sulfoxide resulting in a final concentration of the test compound of 10 μM. For the high controls, 10 μl of a solution of sphingosine-1-phosphate (S1P; Sigma, cat. no. S-9666), resulting in a final S1P concentration of 10 μM, and for the low controls 10 μl of assay buffer, was added into the respective wells instead of the solution of the test compound. All wells contained equivalent amounts of dimethyl sulfoxide. […]
# T1 sequence (P21453 whole entry): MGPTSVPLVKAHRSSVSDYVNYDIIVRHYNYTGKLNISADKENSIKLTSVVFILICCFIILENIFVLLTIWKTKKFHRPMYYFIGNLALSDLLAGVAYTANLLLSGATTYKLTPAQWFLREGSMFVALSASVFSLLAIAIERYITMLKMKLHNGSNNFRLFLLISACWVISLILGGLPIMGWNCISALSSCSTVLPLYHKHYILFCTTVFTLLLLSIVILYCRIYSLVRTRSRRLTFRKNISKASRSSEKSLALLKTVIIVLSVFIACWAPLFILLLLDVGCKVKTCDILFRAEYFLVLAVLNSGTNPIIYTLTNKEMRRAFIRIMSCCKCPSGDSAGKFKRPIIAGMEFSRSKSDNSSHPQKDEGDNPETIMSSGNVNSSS
row,SMILES,activation at 10 µM
1,"CCCc1nc(Oc2cc(F)ccc2F)nc2oc(-c3cc(C)c(OCC(=O)O)c(C)c3)nc12 [Example 1, {4-[5-(2,5-Difluorophenoxy)-7-propyloxazolo[5,4-d]pyrimidin-2-yl]-2,6-dimethylphenoxy}acetic acid]",94%
2,"CCCc1nc(OCCC(F)(F)F)nc2oc(-c3cc(C)c(OCC(=O)O)c(C)c3)nc12 [Example 2, {2,6-Dimethyl-4-[7-propyl-5-(3,3,3-trifluoropropoxy)oxazolo[5,4-d]pyrimidin-2-yl]phenoxy}acetic acid]",97%
3,"Cc1cc(-c2nc3c(CC(C)C)nc(Oc4ccccc4F)nc3o2)cc(C)c1OCC(=O)O [Example 3, {4-[5-(2-Fluorophenoxy)-7-isobutyloxazolo[5,4-d]pyrimidin-2-yl]-2,6-dimethylphenoxy}acetic acid]",92%
4,"Cc1cc(-c2nc3c(CC(C)C)nc(OCCC(F)(F)F)nc3o2)cc(C)c1OCC(=O)O [Example 4, {4-[7-Isobutyl-5-(3,3,3-trifluoropropoxy)oxazolo[5,4-d]pyrimidin-2-yl]-2,6-dimethylphenoxy}acetic acid]",106%
5,"Cc1cc(-c2nc3c(CC(C)C)nc(Oc4cccc(Cl)c4)nc3o2)cc(C)c1OCC(=O)O [Example 5, {4-[5-(3-Chlorophenoxy)-7-isobutyloxazolo[5,4-d]pyrimidin-2-yl]-2,6-dimethylphenoxy}acetic acid]",86%
6,"CCCc1nc(Oc2cccc(Cl)c2)nc2oc(-c3cc(C)c(OCC(=O)O)c(C)c3)nc12 [Example 6, {4-[5-(3-Chlorophenoxy)-7-propyloxazolo[5,4-d]pyrimidin-2-yl]-2,6-dimethylphenoxy}acetic acid]",118%
7,"Cc1cc(-c2nc3c(CC(C)C)nc(Cc4ccc(Cl)cc4)nc3o2)cc(C)c1OCC(=O)O [Example 7, {4-[5-(4-Chlorobenzyl)-7-isobutyloxazolo[5,4-d]pyrimidin-2-yl]-2,6-dimethylphenoxy}acetic acid]",38%
8,"Cc1cc(-c2nc3c(CC(C)C)nc(Cc4ccccc4)nc3o2)cc(C)c1OCC(=O)O [Example 8, [4-(5-Benzyl-7-isobutyloxazolo[5,4-d]pyrimidin-2-yl)-2,6-dimethylphenoxy]acetic acid]",98%
9,"Cc1cc(-c2nc3c(C(C)C)nc(Cc4ccc(Cl)cc4)nc3o2)cc(C)c1OCC(=O)O [Example 9, {4-[5-(4-Chlorobenzyl)-7-isopropyloxazolo[5,4-d]pyrimidin-2-yl]-2,6-dimethylphenoxy}acetic acid]",90%
